The series in a line: solvent given as SMILES.

For the compound `CC(=O)c1ccc(-c2nc3ccc(N(C)C)c(Cl)c3s2)cc1`, the emission maximum stood at 424 nm (in C1CCCCC1); 568 nm (in CC#N); 585.02 nm (in CC(C)O); 629 nm (in CO); 569.23 nm (in CS(C)=O); 506 nm (in ClC(Cl)Cl). Where the note is “in c1ccccc1”, this compound displayed an emission maximum of 474.9 nm.
As for `CC(C)(C)NC(=O)c1ccc(-c2ccccc2)c2ccc3c4ccccc4c4ccccc4c3c12`, where the note is “in ClCCl”, the emission maximum amounted to 413 nm.
With `Cc1ccc2c(c1)C(=O)c1ccncc1-2`, the emission maximum reads like this: (in CC#N) 536.75 nm; (in CCCCCC) 487.83 nm.
For the compound `O=C(O)c1ccc2ccc3cccc4ccc1c2c34`, the emission maximum reads like this: (in C1CCOC1) 387 nm; (in CC#N) 389 nm; (in CCCCCC) 387 nm; (in CCO) 380 nm; (in CN(C)C=O) 388 nm; (in CO) 380 nm. Also, the emission maximum was determined as 392 nm (in Cc1ccccc1) and 394 nm (in ClCCl).
Turning to `COc1ccc(-c2ccc3c(c2)C=Cc2cc(-c4ccc(OC)cc4)ccc2[Si]3(C)C)cc1`, the emission maximum (in ClCCl) came to 391 nm.
Turning to `Cc1cc(C2(c3cc(C)c(O)c(Br)c3)OS(=O)(=O)c3ccccc32)cc(Br)c1O`, the emission maximum (in C1CCOC1) worked out at 492 nm; the emission maximum (in C1COCCO1) is on record as 450 nm; the emission maximum (in CC#N) is recorded as 497 nm; the emission maximum (in CC(C)(C)O) is 473 nm; the emission maximum (in CC(C)=O) was 490 nm; the emission maximum (in CC(C)O) was 498 nm. Moreover, the emission maximum by setting is: (in CCCCCO) 485 nm; (in CCCO) 505 nm; (in CCO) 507 nm; (in CCOC(C)=O) 478 nm; (in CCOCC) 476 nm; (in CO) 502 nm.
On to `COc1cc(OC)c2c(c1)c1cc3oc(=O)cc(C)c3cc1c1cc(OC)cc(OC)c12`, for which the emission maximum (in ClC(Cl)Cl) is 538 nm.
`CN(C)c1ccc(C(=O)Nc2ccc(Cl)cc2)cc1`: the emission maximum is on record as 435 nm (in C1CCCCC1), 490 nm (in C1CCOC1), 498 nm (in CC#N) and 481 nm (in CCOCC).
On to `N#Cc1cnc(-c2c3ccccc3c(-c3ncc(C#N)cn3)c3ccccc23)nc1`, for which the emission maximum by setting is: (in CCO) 503 nm; (in ClCCl) 500 nm.
Under “in ClCCl”, `CCCCCCCCCCOc1ccc(C#Cc2cc3c(C#Cc4ccc(OCCCCCCCCCC)cc4)c(C#Cc4ccc(OCCCCCCCCCC)cc4)c4cc(C#Cc5ccc(OCCCCCCCCCC)cc5)cc5c(C#Cc6ccc(OCCCCCCCCCC)cc6)c(C#Cc6ccc(OCCCCCCCCCC)cc6)c(c2)c3c45)cc1` displayed an emission maximum of 466 nm.
`CC[n+]1c(-c2ccccc2)c2cc(NC(N)=[NH2+])ccc2c2ccc(NC(N)=[NH2+])cc21` came in with an emission maximum (in O) of 500 nm.
Consider `CCN(CC)c1ccc2cc(/C=C(\C#N)c3nc4ccccc4s3)c(=O)oc2c1`, for which the emission maximum is listed as 570 nm (in C1COCCO1); 596 nm (in CC#N); 594 nm (in CCO); 576 nm (in CCOC(C)=O); 605 nm (in CN(C)C=O); 598 nm (in CO). For the same compound, the emission maximum turned out to be 613 nm (in CS(C)=O), 567 nm (in Cc1ccccc1) and 580 nm (in ClCCl).
Consider `N#Cc1c(N2CCCCC2)cc(-c2ccc(O)cc2)c2c1-c1cccc3cccc-2c13`, for which the emission maximum is, setting by setting: (in C1CCCCC1) 527 nm; (in C1COCCO1) 540 nm; (in CC#N) 569 nm; (in CCO) 548 nm; (in CN(C)C=O) 573 nm; (in CO) 554 nm. This compound also returned an emission maximum (in CS(C)=O) of 580 nm, an emission maximum (in Cc1ccccc1) of 530 nm, an emission maximum (in ClCCl) of 545 nm and an emission maximum (in O) of 550 nm.
Where the note is “in CN(C)C=O”, `O=C([O-])c1c2ccccc2c(C(=O)[O-])c2ccccc12` returned an emission maximum of 410 nm.

(Values after the Deep4Chem optical property database.)
